Results reported in patent US9695155B2, “Herbicidal substituted pyrimidinyloxy benzene compounds” (E. I. DU PONT DE NEMOURS AND COMPANY, priority 2013, dated 2017).

Legend:
[1] = system: pigweed; assay: Test D postemergence; assay type: in vivo, Amaranthus retroflexus; settings: Amaranthus retroflexus, post-emergence
Description: (§1) Seeds of plant species selected from bluegrass (annual bluegrass, Poa annua), blackgrass (Alopecurus myosuroides), canarygrass (littleseed canarygrass, Phalaris minor), chickweed (common chickweed, Stellaria media), galium (catchweed bedstraw, Galium aparine), bromegrass, downy (downy bromegrass, Bromus tectorum), field poppy (Papaver rhoeas), field violet (Viola arvensis), green foxtail (Setaria viridis), deadnettle (henbit deadnettle, Lamium amplexicaule), Italian ryegrass (Lolium multiflorum), kochia (Kochia scoparia), lambsquarters (Chenopodium album), oilseed rape (Brassica napus), pigweed (Amaranthus retroflexus), chamomile (scentless chamomile, Matricaria inodora), Russian thistle (Salsola kali), speedwell (bird's-eye speedwell, Veronica persica), spring barley (Hordeum vulgare), spring wheat (Triticum aestivum), wild buckwheat (Polygonum convolvulus), wild mustard (Sinapis arvensis), wild oat (Avena fatua), wild radish (Raphanus raphanistrum), windgrass (Apera spica-venti), winter barley (Hordeum vulgare), and winter wheat (Triticum aestivum) were planted into a silt loam soil and treated preemergence with test chemicals formulated in a non-phytotoxic solvent mixture which included a surfactant.
(§2) At the same time, these species were planted in pots containing Redi-Earth® planting medium (Scotts Company, 14111 Scottslawn Road, Marysville, Ohio 43041) comprising spaghnum peat moss, vermiculite, wetting agent and starter nutrients and treated with postemergence applications of the test chemicals formulated in the same manner. Plants ranged in height from 2 to 18 cm (1- to 4-leaf stage). Treated plants and controls were maintained in a controlled growth environment for 7 to 21 days after which time all species were compared to controls and visually evaluated. Plant response ratings, summarized in Table D, are based on a scale of 0 to 100 where 0 is no effect and 100 is complete control. A dash (-) response means no test result.

[2] = system: bluegrass; assay: Test D preemergence; assay type: in vivo, Poa annua; settings: Poa annua, pre-emergence
In short: (§3)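 Visual ratings from 0 (no effect) to 100 (complete control) relative to untreated plants were taken 7–21 days after treatment. Chemicals in a surfactant-containing solvent mixture were applied preemergence to seeds in silt loam, or postemergence to plants 2–18 cm tall (1–4 leaves) grown in a peat-based potting medium.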

[3] = system: field violet; assay: Test D postemergence; assay type: in vivo, Viola arvensis; settings: Viola arvensis, post-emergence
Description: as §1, §2

[4] = system: wild mustard; assay: Test D preemergence; assay type: in vivo, Sinapis arvensis; settings: Brassica, pre-emergence
Description: as §1, §2

[5] = system: galium; assay: Test D postemergence; assay type: in vivo, Galium aparine; settings: Galium, post-emergence
Description: as §1, §2

[6] = system: wild buckwheat; assay: Test D postemergence; assay type: in vivo, Polygonum convolvulus; settings: Fallopia convolvulus, post-emergence, Postemergence, scale 0 to 100 (0 no effect, 100 complete control), read-out: Plant response rating, Buckwheat, Wild
In short: as §3

[7] = system: field poppy; assay: Test D postemergence; assay type: in vivo, Papaver rhoeas; settings: Papaver rhoeas, post-emergence
Description: as §1, §2

[8] = system: blackgrass; assay: Test D postemergence; assay type: in vivo, Alopecurus myosuroides; settings: Alopecurus myosuroides, post-emergence, Postemergence, scale 0 to 100 (0 no effect, 100 complete control), read-out: Plant response rating, Blackgrass
In short: as §3

[9] = system: winter barley; assay: Test D postemergence; assay type: in vivo, Hordeum vulgare; settings: Hordeum vulgare, post-emergence, Postemergence, scale 0 to 100 (0 no effect, 100 complete control), read-out: Plant response rating, Barley, Winter
In short: as §3

[10] = system: spring barley; assay: Test D postemergence; assay type: in vivo, Hordeum vulgare; settings: Hordeum vulgare, post-emergence, Postemergence, scale 0 to 100 (0 no effect, 100 complete control), read-out: Plant response rating, Barley, Spring
In short: as §3

[11] = system: canarygrass; assay: Test D postemergence; assay type: in vivo, Phalaris minor; settings: Phalaris minor, post-emergence
Description: as §1, §2

[12] = system: green foxtail; assay: Test D postemergence; assay type: in vivo, Setaria viridis; settings: Setaria viridis, post-emergence
In short: as §3

Fc1cccc(Oc2ncc(Cl)cn2)c1-n1cc(C(F)F)nn1 [Compound 141, 5-chloro-2-[2-[4-(difluoromethyl)-1H-1,2,3-triazol-1-yl]-3-fluorophenoxy]pyrimidine]
pest or weed control at 16 g/ha ([1]; 16 g ai/ha, scale 0-100, read-out: Plant response rating, Pigweed): 98% | pest or weed control at 31 g/ha ([1]; 31 g ai/ha, scale 0 to 100 (0 no effect, 100 complete control), read-out: Plant response rating, Pigweed): 98% | pest or weed control at 62 g/ha ([1]; 62 g ai/ha, scale 0 to 100 (0 no effect, 100 complete control), read-out: Plant response rating, Pigweed): 100% | pest or weed control at 125 g/ha ([1]; 125 g ai/ha, scale 0 to 100 (0 no effect, 100 complete control), read-out: Plant response rating, Pigweed): 100% | pest or weed control at 16 g/ha ([2]; 16 g ai/ha, scale 0 (no effect) to 100 (complete control), read-out: Plant response rating, Bluegrass): 15% | pest or weed control at 31 g/ha ([2]; 31 g ai/ha, scale 0-100, read-out: Plant response rating, Bluegrass): 35% | pest or weed control at 62 g/ha ([2]; 62 g ai/ha, scale 0-100, read-out: Plant response rating, Bluegrass): 90% | pest or weed control at 125 g/ha ([2]; 125 g ai/ha, scale 0-100, read-out: Plant response rating, Bluegrass): 90% | pest or weed control at 16 g/ha ([3]; 16 g ai/ha, scale 0-100, read-out: Plant response rating, Field Violet): 45% | pest or weed control at 31 g/ha ([3]; 31 g ai/ha, scale 0 to 100 (0 no effect, 100 complete control), read-out: Plant response rating, Field Violet): 75% | pest or weed control at 62 g/ha ([3]; 62 g ai/ha, scale 0 to 100 (0 no effect, 100 complete control), read-out: Plant response rating, Field Violet): 85% | pest or weed control at 125 g/ha ([3]; 125 g ai/ha, scale 0 to 100 (0 no effect, 100 complete control), read-out: Plant response rating, Field Violet): 95% | pest or weed control at 16 g/ha ([4]; 16 g ai/ha, scale 0 (no effect) to 100 (complete control), read-out: Plant response rating, Mustard, Wild): 90% | pest or weed control at 31 g/ha ([4]; 31 g ai/ha, scale 0-100, read-out: Plant response rating, Mustard, Wild): 100% | pest or weed control at 62 g/ha ([4]; 62 g ai/ha, scale 0-100, read-out: Plant response rating, Mustard, Wild): 100% | pest or weed control at 125 g/ha ([4]; 125 g ai/ha, scale 0-100, read-out: Plant response rating, Mustard, Wild): 100% | pest or weed control at 16 g/ha ([5]; 16 g ai/ha, scale 0-100, read-out: Plant response rating, Galium): 95% | pest or weed control at 31 g/ha ([5]; 31 g ai/ha, scale 0 to 100 (0 no effect, 100 complete control), read-out: Plant response rating, Galium): 98% | pest or weed control at 62 g/ha ([5]; 62 g ai/ha, scale 0 to 100 (0 no effect, 100 complete control), read-out: Plant response rating, Galium): 98% | pest or weed control at 125 g/ha ([5]; 125 g ai/ha, scale 0 to 100 (0 no effect, 100 complete control), read-out: Plant response rating, Galium): 98% | pest or weed control at 16 g/ha ([6]; 16 g ai/ha): 100% | pest or weed control at 31 g/ha ([6]; 31 g ai/ha): 100% | pest or weed control at 62 g/ha ([6]; 62 g ai/ha): 100% | pest or weed control at 125 g/ha ([6]; 125 g ai/ha): 100% | pest or weed control at 16 g/ha ([7]; 16 g ai/ha, scale 0-100, read-out: Plant response rating, Field Poppy): 40% | pest or weed control at 31 g/ha ([7]; 31 g ai/ha, scale 0 to 100 (0 no effect, 100 complete control), read-out: Plant response rating, Field Poppy): 95% | pest or weed control at 62 g/ha ([7]; 62 g ai/ha, scale 0 to 100 (0 no effect, 100 complete control), read-out: Plant response rating, Field Poppy): 90% | pest or weed control at 125 g/ha ([7]; 125 g ai/ha, scale 0 to 100 (0 no effect, 100 complete control), read-out: Plant response rating, Field Poppy): 85% | pest or weed control at 62 g/ha ([8]; 62 g ai/ha): 35% | pest or weed control at 16 g/ha ([8]; 16 g ai/ha): 10% | pest or weed control at 31 g/ha ([8]; 31 g ai/ha): 25% | pest or weed control at 125 g/ha ([8]; 125 g ai/ha): 55% | plant injury at 16 g/ha ([9]; 16 g ai/ha): 20% | plant injury at 31 g/ha ([9]; 31 g ai/ha): 20% | plant injury at 62 g/ha ([9]; 62 g ai/ha): 25% | plant injury at 125 g/ha ([9]; 125 g ai/ha): 35% | plant injury at 16 g/ha ([10]; 16 g ai/ha): 10% | plant injury at 31 g/ha ([10]; 31 g ai/ha): 20% | plant injury at 62 g/ha ([10]; 62 g ai/ha): 25% | plant injury at 125 g/ha ([10]; 125 g ai/ha): 25% | pest or weed control at 16 g/ha ([11]; 16 g ai/ha, scale 0-100, read-out: Plant response rating, Canarygrass): 10% | pest or weed control at 31 g/ha ([11]; 31 g ai/ha, scale 0 to 100 (0 no effect, 100 complete control), read-out: Plant response rating, Canarygrass): 25% | pest or weed control at 62 g/ha ([11]; 62 g ai/ha, scale 0 to 100 (0 no effect, 100 complete control), read-out: Plant response rating, Canarygrass): 35% | pest or weed control at 125 g/ha ([11]; 125 g ai/ha, scale 0 to 100 (0 no effect, 100 complete control), read-out: Plant response rating, Canarygrass): 55% | pest or weed control at 16 g/ha ([12]; 16 g ai/ha, scale 0-100, read-out: Plant response rating, Foxtail, Green): 15% | pest or weed control at 31 g/ha ([12]; 31 g ai/ha, scale 0 to 100 (0 no effect, 100 complete control), read-out: Plant response rating, Foxtail, Green): 20% | pest or weed control at 62 g/ha ([12]; 62 g ai/ha, scale 0 to 100 (0 no effect, 100 complete control), read-out: Plant response rating, Foxtail, Green): 45% | pest or weed control at 125 g/ha ([12]; 125 g ai/ha, scale 0 to 100 (0 no effect, 100 complete control), read-out: Plant response rating, Foxtail, Green): 100%
